From ChEMBL document CHEMBL5136991, “Dual-target inhibitors of poly (ADP-ribose) polymerase-1 for cancer therapy: Advances, challenges, and opportunities” (Eur J Med Chem, 2022)

Key:
[1] = molecular target: Dihydroorotate dehydrogenase (quinone), mitochondrial (Homo sapiens, UniProt Q02127); assay: Inhibition of DHODH (unknown origin)
[2] = Inhibition of PARP (unknown origin); design: species or system Homo sapiens
[3] = Ratio of olaparib IC50 to test compound IC50 for antiproliferative against BRCA deficient human HCC1937 cells; assay type: functional
[4] = Ratio of olaparib IC50 to test compound IC50 for antiproliferative against BRCA proficient human MCF7 cells; assay type: functional
[5] = molecular target: Poly [ADP-ribose] polymerase 2 (Homo sapiens, UniProt Q9UGN5); assay: Inhibition of PARP2 (unknown origin) incubated for 60 mins by microplate assay kit method
Chain of Poly [ADP-ribose] polymerase 2 (Q9UGN5 whole entry): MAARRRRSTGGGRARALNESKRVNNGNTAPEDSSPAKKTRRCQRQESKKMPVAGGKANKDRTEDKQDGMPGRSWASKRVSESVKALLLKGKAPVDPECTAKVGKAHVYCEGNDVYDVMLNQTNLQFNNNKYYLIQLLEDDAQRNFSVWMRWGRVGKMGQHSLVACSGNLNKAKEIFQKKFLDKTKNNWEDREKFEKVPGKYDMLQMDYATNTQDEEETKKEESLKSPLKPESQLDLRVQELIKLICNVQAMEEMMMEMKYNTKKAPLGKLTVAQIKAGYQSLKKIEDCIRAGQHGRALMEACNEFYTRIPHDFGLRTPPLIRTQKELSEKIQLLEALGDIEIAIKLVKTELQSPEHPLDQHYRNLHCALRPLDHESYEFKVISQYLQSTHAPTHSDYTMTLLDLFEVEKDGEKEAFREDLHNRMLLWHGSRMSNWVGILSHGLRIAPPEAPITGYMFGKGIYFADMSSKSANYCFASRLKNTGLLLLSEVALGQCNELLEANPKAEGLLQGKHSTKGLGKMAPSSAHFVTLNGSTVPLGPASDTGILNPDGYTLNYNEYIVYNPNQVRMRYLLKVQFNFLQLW

[6] = Inhibition of porcine brain microtubule polymerization incubated for 105 mins by fluorescent based assay; design: species or system Sus scrofa
[7] = molecular target: T1, Poly [ADP-ribose] polymerase 1 (Homo sapiens, UniProt P09874); assay: Inhibition of PARP1 (unknown origin) incubated for 60 mins by microplate assay kit method
T1 sequence (P09874 whole entry): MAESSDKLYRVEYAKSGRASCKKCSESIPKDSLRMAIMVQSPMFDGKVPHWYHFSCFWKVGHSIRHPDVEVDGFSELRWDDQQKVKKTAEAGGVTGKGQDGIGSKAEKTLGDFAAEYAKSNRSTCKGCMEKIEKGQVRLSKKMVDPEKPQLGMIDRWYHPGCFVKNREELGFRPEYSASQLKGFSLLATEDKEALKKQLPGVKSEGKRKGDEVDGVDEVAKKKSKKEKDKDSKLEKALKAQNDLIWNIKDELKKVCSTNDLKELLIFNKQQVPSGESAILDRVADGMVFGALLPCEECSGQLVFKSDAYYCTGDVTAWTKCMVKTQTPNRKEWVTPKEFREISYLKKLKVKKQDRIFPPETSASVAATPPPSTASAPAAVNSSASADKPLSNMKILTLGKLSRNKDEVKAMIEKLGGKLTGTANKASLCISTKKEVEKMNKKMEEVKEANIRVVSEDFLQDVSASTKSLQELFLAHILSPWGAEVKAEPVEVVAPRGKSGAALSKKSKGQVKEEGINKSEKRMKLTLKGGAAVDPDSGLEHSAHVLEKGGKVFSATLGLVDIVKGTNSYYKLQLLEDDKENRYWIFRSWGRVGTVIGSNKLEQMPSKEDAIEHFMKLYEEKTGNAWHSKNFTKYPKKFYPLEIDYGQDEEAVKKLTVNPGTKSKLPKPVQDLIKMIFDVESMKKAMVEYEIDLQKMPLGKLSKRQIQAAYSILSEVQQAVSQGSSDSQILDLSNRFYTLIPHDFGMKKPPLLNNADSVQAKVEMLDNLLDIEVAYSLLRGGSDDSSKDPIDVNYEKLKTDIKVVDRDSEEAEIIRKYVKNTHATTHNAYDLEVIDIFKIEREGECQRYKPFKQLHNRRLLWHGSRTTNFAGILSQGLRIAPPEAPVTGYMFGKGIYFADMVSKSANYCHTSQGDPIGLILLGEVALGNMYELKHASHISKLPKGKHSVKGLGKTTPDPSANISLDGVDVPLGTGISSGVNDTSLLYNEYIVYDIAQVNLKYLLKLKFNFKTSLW

MCF7 = assay: Antiproliferative activity against BRCA proficient human MCF7 cells assessed as inhibition of cell growth incubated for 48 hrs by MTT assay; assay type: functional, cell-based; conditions: MCF7, 48 h
HCC1937 = assay: Antiproliferative activity against BRCA deficient human HCC1937 cells assessed as inhibition of cell growth incubated for 48 hrs by MTT assay; assay type: functional, cell-based; conditions: HCC1937, 48 h
[8] = molecular target: Rho-associated protein kinase 2 (Homo sapiens, UniProt O75116); assay: Inhibition of ROCK2 (unknown origin)
[9] = molecular target: Rho-associated protein kinase 1 (Homo sapiens, UniProt Q13464); assay: Inhibition of ROCK1 (unknown origin)
Chain of Rho-associated protein kinase 1 (Q13464 whole entry): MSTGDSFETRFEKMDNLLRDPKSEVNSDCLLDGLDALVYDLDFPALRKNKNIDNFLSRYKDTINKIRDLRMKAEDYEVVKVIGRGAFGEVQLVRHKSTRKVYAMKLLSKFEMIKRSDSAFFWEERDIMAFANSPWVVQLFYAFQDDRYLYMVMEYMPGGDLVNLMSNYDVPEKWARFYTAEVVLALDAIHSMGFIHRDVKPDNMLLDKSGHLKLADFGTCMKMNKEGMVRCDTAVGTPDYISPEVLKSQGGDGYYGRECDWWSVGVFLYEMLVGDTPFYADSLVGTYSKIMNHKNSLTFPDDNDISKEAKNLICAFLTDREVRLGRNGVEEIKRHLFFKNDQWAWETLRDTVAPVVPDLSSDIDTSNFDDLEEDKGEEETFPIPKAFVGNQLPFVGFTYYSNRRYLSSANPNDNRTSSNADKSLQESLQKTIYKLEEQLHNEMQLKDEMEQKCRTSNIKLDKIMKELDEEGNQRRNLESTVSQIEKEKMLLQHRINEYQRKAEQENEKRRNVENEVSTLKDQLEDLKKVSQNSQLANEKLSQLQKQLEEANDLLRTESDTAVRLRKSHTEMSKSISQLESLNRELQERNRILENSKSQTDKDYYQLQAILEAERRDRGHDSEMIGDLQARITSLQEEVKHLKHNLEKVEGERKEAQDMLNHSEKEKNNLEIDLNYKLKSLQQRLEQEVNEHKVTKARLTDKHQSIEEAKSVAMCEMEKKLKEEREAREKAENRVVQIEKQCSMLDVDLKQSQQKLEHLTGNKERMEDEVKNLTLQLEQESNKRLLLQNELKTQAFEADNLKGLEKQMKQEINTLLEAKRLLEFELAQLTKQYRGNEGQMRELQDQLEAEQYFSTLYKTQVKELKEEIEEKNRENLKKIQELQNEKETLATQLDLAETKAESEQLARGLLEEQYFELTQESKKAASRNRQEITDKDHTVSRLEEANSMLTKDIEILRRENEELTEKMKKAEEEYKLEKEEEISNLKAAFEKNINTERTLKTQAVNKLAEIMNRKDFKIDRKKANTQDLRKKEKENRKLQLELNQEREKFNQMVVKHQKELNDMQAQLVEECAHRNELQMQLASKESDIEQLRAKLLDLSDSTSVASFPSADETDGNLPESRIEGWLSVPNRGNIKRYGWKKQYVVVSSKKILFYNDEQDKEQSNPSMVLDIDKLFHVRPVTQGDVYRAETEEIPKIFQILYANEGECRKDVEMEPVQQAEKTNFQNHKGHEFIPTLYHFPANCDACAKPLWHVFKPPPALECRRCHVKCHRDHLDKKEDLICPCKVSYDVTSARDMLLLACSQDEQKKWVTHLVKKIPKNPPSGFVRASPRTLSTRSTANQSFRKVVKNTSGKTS

[10] = molecular target: T1, Poly [ADP-ribose] polymerase 1; assay: Inhibition of PARP1 (unknown origin) at […] relative to control
[11] = molecular target: T2, Bromodomain-containing protein 4 (Homo sapiens, UniProt O60885); assay: Inhibition of BRD4 (unknown origin) at […] relative to control
[12] = molecular target: Bromodomain-containing protein 2 (Homo sapiens, UniProt P25440); assay: Inhibition of BRD2 (unknown origin)
Chain of Bromodomain-containing protein 2 (P25440 whole entry): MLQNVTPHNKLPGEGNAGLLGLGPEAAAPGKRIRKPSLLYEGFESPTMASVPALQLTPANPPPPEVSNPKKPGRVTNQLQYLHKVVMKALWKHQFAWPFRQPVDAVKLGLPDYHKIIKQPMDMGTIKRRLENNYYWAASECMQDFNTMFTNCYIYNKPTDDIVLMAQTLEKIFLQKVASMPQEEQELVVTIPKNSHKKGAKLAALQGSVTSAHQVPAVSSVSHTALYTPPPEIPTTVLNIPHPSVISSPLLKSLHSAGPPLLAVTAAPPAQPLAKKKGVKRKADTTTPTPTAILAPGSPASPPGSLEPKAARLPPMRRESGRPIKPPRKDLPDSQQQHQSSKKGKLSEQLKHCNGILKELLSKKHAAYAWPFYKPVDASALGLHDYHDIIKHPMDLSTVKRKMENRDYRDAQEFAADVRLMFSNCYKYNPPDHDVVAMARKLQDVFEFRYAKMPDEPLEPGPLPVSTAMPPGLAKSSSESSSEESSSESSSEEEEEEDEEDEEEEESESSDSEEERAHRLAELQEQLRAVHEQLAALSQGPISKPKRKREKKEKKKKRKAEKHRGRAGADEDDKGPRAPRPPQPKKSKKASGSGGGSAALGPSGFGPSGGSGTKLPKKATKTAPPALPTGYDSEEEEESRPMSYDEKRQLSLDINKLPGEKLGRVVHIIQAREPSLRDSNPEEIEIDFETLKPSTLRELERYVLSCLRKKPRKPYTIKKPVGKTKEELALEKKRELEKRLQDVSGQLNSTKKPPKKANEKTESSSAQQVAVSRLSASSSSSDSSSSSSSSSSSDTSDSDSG

[13] = molecular target: T1, Poly [ADP-ribose] polymerase 1; assay: Inhibition of PARP1 (unknown origin) relative to control; conditions: concentration not given here
[14] = molecular target: T2, Bromodomain-containing protein 4; assay: Ratio of IC50 for RVX-208 to IC50 for test compound for BRD4 (unknown origin)
[15] = AUC (0 to infinity) in Sprague-Dawley rat plasma at 10 mg/kg, po; assay type: ADME, organism-based; design: time infinity, dose 10 mg/kg, route po; conditions: in vivo
[16] = molecular target: T2, Bromodomain-containing protein 4; assay: Inhibition of BRD4 (unknown origin) relative to control; conditions: concentration not given here
[17] = molecular target: T3, Bromodomain-containing protein 1 (Homo sapiens, UniProt O95696); assay: Inhibition of BRD1 (unknown origin)
T3 sequence (O95696 whole entry): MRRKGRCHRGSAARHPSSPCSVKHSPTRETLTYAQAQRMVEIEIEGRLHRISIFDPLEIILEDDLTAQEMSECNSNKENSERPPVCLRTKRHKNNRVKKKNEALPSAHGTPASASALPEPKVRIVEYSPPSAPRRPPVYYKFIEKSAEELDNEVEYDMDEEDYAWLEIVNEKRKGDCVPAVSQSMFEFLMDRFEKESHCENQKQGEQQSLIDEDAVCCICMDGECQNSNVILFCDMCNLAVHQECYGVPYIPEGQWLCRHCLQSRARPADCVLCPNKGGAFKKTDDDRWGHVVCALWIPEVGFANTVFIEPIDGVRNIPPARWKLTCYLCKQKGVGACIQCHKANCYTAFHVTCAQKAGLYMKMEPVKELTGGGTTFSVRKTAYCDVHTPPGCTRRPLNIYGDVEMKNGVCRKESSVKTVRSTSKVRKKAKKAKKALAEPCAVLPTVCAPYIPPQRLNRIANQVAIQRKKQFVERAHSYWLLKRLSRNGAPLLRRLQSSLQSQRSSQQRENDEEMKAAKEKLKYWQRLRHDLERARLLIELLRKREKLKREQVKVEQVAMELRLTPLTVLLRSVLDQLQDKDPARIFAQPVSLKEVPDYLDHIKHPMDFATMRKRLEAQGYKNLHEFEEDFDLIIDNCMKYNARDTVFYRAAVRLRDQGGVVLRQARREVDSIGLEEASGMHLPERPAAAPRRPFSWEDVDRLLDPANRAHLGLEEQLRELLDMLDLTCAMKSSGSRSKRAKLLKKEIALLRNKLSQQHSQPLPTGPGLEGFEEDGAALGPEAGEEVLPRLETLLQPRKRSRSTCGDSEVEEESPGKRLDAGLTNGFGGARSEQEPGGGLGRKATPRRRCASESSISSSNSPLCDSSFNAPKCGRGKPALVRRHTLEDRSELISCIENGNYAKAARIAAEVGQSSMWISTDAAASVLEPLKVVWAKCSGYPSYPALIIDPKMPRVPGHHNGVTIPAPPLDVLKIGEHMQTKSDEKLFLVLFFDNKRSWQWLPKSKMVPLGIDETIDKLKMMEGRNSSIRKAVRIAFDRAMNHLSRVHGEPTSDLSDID

[18] = Cmax in Sprague-Dawley rat plasma at 10 mg/kg, po; assay type: ADME, organism-based; design: dose 10 mg/kg, route po; conditions: in vivo
[19] = molecular target: T2, Bromodomain-containing protein 4; assay: Inhibition of BRD4 (unknown origin)
[20] = MRT in Sprague-Dawley rat plasma at 10 mg/kg, po; assay type: ADME, organism-based
[21] = Tmax in Sprague-Dawley rat plasma at 10 mg/kg, po; assay type: ADME, organism-based; conditions: in vivo
[22] = molecular target: T1, Poly [ADP-ribose] polymerase 1; assay: Inhibition of PARP1 (unknown origin)
[23] = Half life in Sprague-Dawley rat plasma at 10 mg/kg, po; assay type: ADME, organism-based; conditions: in vivo

Chain of Dihydroorotate dehydrogenase (quinone), mitochondrial (Q02127 whole entry): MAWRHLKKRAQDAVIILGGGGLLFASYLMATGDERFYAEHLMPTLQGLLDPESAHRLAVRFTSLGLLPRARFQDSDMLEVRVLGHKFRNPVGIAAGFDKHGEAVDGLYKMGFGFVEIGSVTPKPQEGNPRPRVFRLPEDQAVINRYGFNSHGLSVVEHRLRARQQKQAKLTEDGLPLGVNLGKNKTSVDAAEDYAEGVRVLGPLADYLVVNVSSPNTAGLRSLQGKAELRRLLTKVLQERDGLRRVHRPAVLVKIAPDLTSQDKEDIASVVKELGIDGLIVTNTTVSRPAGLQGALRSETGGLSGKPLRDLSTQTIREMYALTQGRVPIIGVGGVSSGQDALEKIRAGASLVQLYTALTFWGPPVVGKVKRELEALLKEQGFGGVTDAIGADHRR

What does the source list for O=C(O)c1cc(F)cc2[nH]c(-c3ccc(-c4ccc(NC(=O)C5CC5)cc4F)cc3F)nc12?
IC50 [1]: 48000 nM; IC50 [2]: 84 nM

What does the source list for O=C1/C(=C/c2ccncc2)CN(C(=O)c2cc(Cc3n[nH]c(=O)c4ccccc34)ccc2F)C/C1=C\c1ccncc1?
Ratio IC50 [3]: 40; Ratio IC50 [4]: 200

For CCOC(=O)Nc1nc2ccc(-c3cc(Cc4n[nH]c(=O)c5ccccc45)ccc3F)cc2[nH]1, which IC50 [5] is on record?
The IC50 was 50 nM.

What about the IC50 [6] of the same molecule?
The IC50 was 990 nM.

What about the IC50 [7] of the same molecule?
Its IC50 is 5 nM.

Which IC50 [2] does the source give for NC(=O)c1cccc2[nH]c(-c3ccc(-c4cncc(CN5CCCC5)c4)cc3)nc12 here?
Its IC50 is 61 nM.

For CC(=O)Nc1cccc(-c2ccc(-c3nc4c(C(N)=O)cccc4[nH]3)cc2)c1, which IC50 [2] is on record?
The IC50 was 460 nM.

For O=C(c1cc(Cc2n[nH]c(=O)c3ccccc23)ccc1F)N1CCN(C(=O)C2CC2)CC1 [OLAPARIB], which IC50 (MCF7) is on record?
Its IC50 is 232000 nM.

What about the IC50 (HCC1937) of the same molecule?
The IC50 was 83100 nM.

For O=C(COc1cccc2c(=O)[nH]ccc12)c1ccccc1, which IC50 [8] is on record?
The IC50 was 20500 nM.

What about the IC50 [9] of the same molecule?
The IC50 was 9300 nM.

With CC(=O)Nc1ccc(COc2ccc(-c3ccc(-c4nc5c(C(=O)O)cc(C)cc5[nH]4)cc3)cc2)cc1 as the molecule, how does the IC50 [2] read?
Its IC50 is 44000 nM.

Which results are given for COc1cc(OC)c2c(=O)[nH]c(-c3ccc([C@@H]4CCCNC4)cc3)nc2c1?
inhibition [10]: 65%; inhibition [11]: 30%

Which results are given for COc1cc(OC)c2c(=O)[nH]c(-c3ccc(OCCOc4ccccc4C(N)=O)cc3)nc2c1?
IC50 [12]: 379 nM; inhibition [13]: 88%; Ratio IC50 [14]: 30; AUC [15]: 144.7 ng·h/mL; inhibition [16]: 92%; IC50 [17]: 440 nM; Cmax [18]: 26.65 ng/mL; IC50 [19]: 400 nM; MRT [20]: 5.35 h; Tmax [21]: 1.58 h; IC50 [22]: 4600 nM; t1/2 [23]: 3.1 h
